Test results taken from PubChem BioAssay AID1845194 (Molecular Pharmacology Branch, DTP, NCI, 2023).

System: 287954-098-R-J1 tumor spheroid viability
Assay: Anticancer human tumor 287954-098-R-J1 patient-derived Ewing sarcoma cell line growth inhibition
Conditions: spheroids with HUVEC and MSC; for IC50: curve of first compound; for viability, T/C: stronger effect = lower value
Text: Multicellular complex tumor spheroid response to DNA repair inhibitors in combination with DNA-damaging drugs
This study explores the anticancer activities of DNA-damaging drugs and inhibitors of DNA damage repair, both as single agents and in combinations. Complex tumor spheroids comprised of malignant cells, endothelial cells and mesenchymal stem cells served as an in vitro model for human solid tumors. This model system incorporates physiologically relevant features and patient-derived or established malignant cell lines with clinically relevant genetic alterations from many tumor types. Twenty-six patient-derived or established malignant cell lines were evaluated representing sarcoma, melanoma, small cell lung cancer (SCLC), non-small cell lung cancer (NSCLC), as well as bladder, ovarian and pancreatic cancers. The concentration ranges selected for each drug and investigational agent were based upon clinically achievable concentrations if the clinical Cmax of the agent was known.
Compounds. The drugs and compounds olaparib (NSC753686), talazoparib (NSC767125), berzosertib (NSC777718), elimusertib (NSC800525), nedisertib (NSC802822), VX-984 (NSC792969), AZD-1390 (NSC803789), temozolomide (NSC362856), topotecan (NSC609699), trabectedin (NSC813783), staurosporine (NSC755774), and gemcitabine (NSC613327) were obtained from the National Cancer Institute (NCI) Developmental Therapeutics Program Chemical Repository. The FDA-approved anticancer drug set is available from the Developmental Therapeutics Program at https://dtp.cancer.gov/organization/dscb/obtaining/available_plates.htm. […] The stock solutions were prepared in dimethyl sulfoxide (DMSO, Sigma-Aldrich, St. Louis, MO, cat. D2650) at 400-fold the tested concentration and stored at -70 degrees C. Prior to their use, the stock solutions were diluted in fresh medium and the final DMSO concentration in the assay was 0.25% (v/v). All drugs and investigational agents were tested over a range starting from a high concentration at or near the clinical Cmax and decreasing in half-log increments. If the clinical Cmax for an agent had not been determined, the highest concentration tested was 10 microM.
Cell Lines. The patient-derived cancer cell (PDC) lines: 156681-154-R-J1-PDC, 283228-195-R-J1-PDC, 287954-098-R-J1-PDC, 292921-168-R-J2-PDC, 349418-098-R-PDC, 425362-245-T-J1-PDC, 556581-035-R-J1-PDC, and BL0293-F563-PDC were received from the NCI Patient-Derived Models Repository (PDMR, https://pdmr.cancer.gov). The established cell lines HS-SY-2 (RRID:CVCL_8719), MPNST, and SYO-1 (RRID:CVCL_7146) were obtained from the Sloan Kettering Institute. The alveolar soft parts sarcoma cell line ASPS-1 (RRID:CVCL_S738) was established at the NCI and grown from internal seed stocks. The following established cell lines were purchased from the American Type Culture Collection (ATCC, Manassas, VA): G-401 (ATCC, cat. CRL-1441, RRID:CVCL_0270), SW982 (ATCC, cat. HTB-93, RRID:CVCL_1734), VA-ES-BJ (ATCC, cat. CRL-2138, RRID:CVCL_1785), NCI-H719 (ATCC, cat. CRL-5837, RRID:CVCL_1582), NCI-H196 (ATCC, cat. CRL-5823, RRID:CVCL_1509), NCI-H841 (ATCC, cat. CRL-5845, RRID:CVCL_1595), NCI-H1618 (ATCC, cat. CRL-5879, RRID:CVCL_1480), NCI-H1876 (ATCC, cat. CRL-5902, RRID:CVCL_1503), DMS 114 (ATCC, cat. CRL-2066; RRID:CVCL_1174), NCI-H211 (ATCC, cat. CRL-5824; RRID:CVCL_1529), and SW 1271 (ATCC, cat. CRL-2177, RRID:CVCL_1716). The small cell lung cancer cell line COR-L88 was purchased from Sigma-Aldrich (cat. 92031917-1VL, RRID:CVCL_1141). The non-small cell lung cancer cell lines NCI-H226 (RRID:CVCL_1544) and NCI-H322M (RRID:CVCL_1557) were established at the NCI and grown from internal seed stocks. Pooled donor human umbilical vein endothelial cells (HUVEC, Lonza, cat. CC-2519) and human mesenchymal stem cells (hMSC, Lonza, cat. PT-2501) were purchased from Lonza (Walkersville, MD).
Cell Culture. All cells were maintained in an incubator at 37 degrees C and 5% CO2 with 95% humidity. […]

[1] = second compound 30 pM, first compound 0.0316 µM
[2] = second compound 30 pM, first compound 0.1 µM
[3] = second compound 30 pM, first compound 0.316 µM
[4] = second compound 30 pM, first compound 1 µM
[5] = second compound 30 pM, first compound 3.16 µM
[6] = second compound 30 pM, first compound 10 µM
[7] = second compound 94.9 pM, first compound 0.0316 µM
[8] = second compound 94.9 pM, first compound 0.1 µM
[9] = second compound 94.9 pM, first compound 0.316 µM
[10] = second compound 94.9 pM, first compound 1 µM
[11] = second compound 94.9 pM, first compound 3.16 µM
[12] = second compound 94.9 pM, first compound 10 µM
[13] = second compound 0.0003 µM, first compound 0.0316 µM
[14] = second compound 0.0003 µM, first compound 0.1 µM
[15] = second compound 0.0003 µM, first compound 0.316 µM
[16] = second compound 0.0003 µM, first compound 1 µM
[17] = second compound 0.0003 µM, first compound 3.16 µM
[18] = second compound 0.0003 µM, first compound 10 µM
[19] = second compound 0.000949 µM, first compound 0.0316 µM
[20] = second compound 0.000949 µM, first compound 0.1 µM
[21] = second compound 0.000949 µM, first compound 0.316 µM
[22] = second compound 0.000949 µM, first compound 1 µM
[23] = second compound 0.000949 µM, first compound 3.16 µM
[24] = second compound 0.000949 µM, first compound 10 µM
[25] = second compound 0.003 µM, first compound 0.0316 µM
[26] = second compound 0.003 µM, first compound 0.1 µM
[27] = second compound 0.003 µM, first compound 0.316 µM
[28] = second compound 0.003 µM, first compound 1 µM
[29] = second compound 0.003 µM, first compound 3.16 µM
[30] = second compound 0.003 µM, first compound 10 µM
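Also: spheroids exposed to compound for 7 days before viability readout.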
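For viability, T/C in this document: luminescent signal taken as surrogate of viable cell content; 100% = DMSO vehicle control viability and lower means growth inhibition.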

Row | SMILES | IC50 (second compound 30 pM) [nM] | IC50 (second compound 94.9 pM) [nM] | IC50 (second compound 0.0003 µM) [nM] | IC50 (second compound 0.000949 µM) [nM] | IC50 (second compound 0.003 µM) [nM] | viability, T/C [1] [%] | viability, T/C [2] [%] | viability, T/C [3] [%] | viability, T/C [4] [%] | viability, T/C [5] [%] | viability, T/C [6] [%] | viability, T/C [7] [%] | viability, T/C [8] [%] | viability, T/C [9] [%] | viability, T/C [10] [%] | viability, T/C [11] [%] | viability, T/C [12] [%] | viability, T/C [13] [%] | viability, T/C [14] [%] | viability, T/C [15] [%] | further results
1 | COc1ccc([C@@H](O)c2cc(-c3ncnc4cc(N5CCOCC5)ccc34)c(F)cc2Cl)nn1 + COc1cc2c(cc1O)CCNC21CSC2c3c(OC(C)=O)c(C)c4c(c3C(COC1=O)N1C(O)C3Cc5cc(C)c(OC)c(O)c5C(C21)N3C)OCO4 | > 10000 | > 10000 | 587 | < 31.6 | < 31.6 | 101 | 99.2 | 100 | 109 | 104 | 94.3 | 109 | 112 | 108 | 109 | 108 | 72.8 | 109 | 109 | 103 | viability, T/C [16]: 4.2%; viability, T/C [17]: 0.48%; viability, T/C [18]: 1.07%; viability, T/C [19]: 0.54%; viability, T/C [20]: 0.53%; viability, T/C [21]: 0.35%; viability, T/C [22]: 0.22%; viability, T/C [23]: 0.12%; viability, T/C [24]: 0.32%; viability, T/C [25]: 0.43%; viability, T/C [26]: 0.47%; viability, T/C [27]: 0.36%; viability, T/C [28]: 0.33%; viability, T/C [29]: 0.32%; viability, T/C [30]: 0.48%
2 | COc1cc(C)[nH]c(=O)c1CN1CCc2c(Cl)cc(C(OC)C3COC3)c(Cl)c2C1=O (stereo not given) + COc1cc2c(cc1O)CCNC21CSC2c3c(OC(C)=O)c(C)c4c(c3C(COC1=O)N1C(O)C3Cc5cc(C)c(OC)c(O)c5C(C21)N3C)OCO4 | > 10000 | > 10000 | > 10000 | < 31.6 | < 31.6 | 96.5 | 94.2 | 87.3 | 92.8 | 104 | 89.9 | 108 | 101 | 94.5 | 94.1 | 91.3 | 94.1 | 104 | 102 | 92.1 | viability, T/C [16]: 95.5%; viability, T/C [17]: 90.9%; viability, T/C [18]: 87.9%; viability, T/C [19]: 0.52%; viability, T/C [20]: 0.35%; viability, T/C [21]: 0.34%; viability, T/C [22]: 0.36%; viability, T/C [23]: 0.25%; viability, T/C [24]: 0.33%; viability, T/C [25]: 0.25%; viability, T/C [26]: 0.27%; viability, T/C [27]: 0.22%; viability, T/C [28]: 0.16%; viability, T/C [29]: 0.16%; viability, T/C [30]: 0.25%
